The record followed here is patent US20250084091A1, “INHIBITORS OF SARS-COV-2” (The Texas A&M University System, priority 2021, published 2025).

Values after ≈ are worked out from the molar mass of the structure shown. Read-outs that look alike come from different tables or passages of the source.

Data set [1] deals with SARS-CoV-2 main protease (Mpro) (Severe acute respiratory syndrome coronavirus 2, UniProt P0DTD1). Nature of the data set: biochemical.
Data set [2] deals with SARS-CoV-2 (strain USA-WA1/2020). Nature of the data set: microbe, parasite or virus in culture. The conditions noted are these: SARS-CoV-2 infected HeLa-ACE2 cells. The class given is cell-based.
The subject of data set [3] is HeLa-ACE2 cells. The data set can be described thus: cells. To be noted: Table 2, total cell count in infected plates. The class given is cell-based.
The nature of data set [4]: Uninfected host cell cytotoxicity counter screen. The class given is cell-based. The conditions noted are these: human. The method, boiled down:
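HeLa-ACE2 cells, uninfected, seeded at 400 cells/well with compounds and held 24 hours at 37° C., 5% CO2. Dead cells stained with Image-iT DEAD green, fixed in 4% paraformaldehyde, DAPI-counterstained and imaged. Data normalized to DMSO and 40 μM puromycin controls; concentration responses in triplicate.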
In general terms: A counterscreen serves to expose hits that act by an unwanted route or on another target.

Data set [5] deals with CoV-2 in Vero cells. Nature of the data set: CoV-2 Vero antiviral assay. To be noted: Severe acute respiratory syndrome coronavirus 2, Vero, read-out: CoV-2 Vero EC50/100. The class given is cell-based, SARS-CoV-2.
Setting [6] is: Severe acute respiratory syndrome coronavirus 2, Table 2, read-out: CoV-2 HeLa EC50.

By IC50 is commonly meant the concentration needed to halve the response being measured. What is called CC50 is the concentration that lowers cell viability or growth by half. As for `O=C(c1cncc(Br)c1)N1CCN(C(c2ccccc2)c2ccccc2)CC1` [AA-551, (4-benzhydrylpiperazin-1-yl)(5-bromopyridin-3-yl)methanone], the half-inhibitory concentration (IC50) in data set [1] (Table 2, read-out: Enzyme IC50) came to 220 nM. Besides, the EC50 was 820 nM in data set [2] (setting [6]), > 9610 nM in data set [3] and 2.5 µg/mL (≈ 5.73 µM) in data set [5]. Further, the CC50 at 24 h in data set [4] is > 39800 nM.
In the same order, the values of `Cc1cncc(C(=O)N2CCN(C(c3ccccc3)c3ccccc3)CC2)c1` [AA-596, (4-benzhydrylpiperazin-1-yl)(5-methylpyridin-3-yl)methanone] are 130 nM, 360 nM, > 9610 nM, 2.5 µg/mL (≈ 6.73 µM) and > 39800 nM.
For the molecule `Cc1cncc(C(=O)N2CC3CCC(C2)N3C(c2ccccc2)c2ccccc2)c1` [AA-604, (8-benzhydryl-3,8-diazabicyclo[3.2.1]octan-3-yl)(5-methylpyridin-3-yl)methanone], in data set [1] (Enzyme IC50, Table 2), the IC50 was determined as 81 nM. Moreover, the EC50 in data set [2] (Severe acute respiratory syndrome coronavirus 2, HeLa-ACE2, read-out: CoV-2 HeLa EC50, Table 2) was 240 nM; in data set [3], > 9610 nM; in data set [5], 5 µg/mL (≈ 12.6 µM). Further, in data set [4] (Table 2, uninfected cells, 24 hours, read-out: Uninfected HeLa-ACE2 CC50), the CC50 at 24 h is > 39800 nM.
Turning to `Cc1cncc(C(=O)N2CCN(C(c3ccccc3)c3cccnc3)CC2)c1` (centres unmarked) [MKP-1217, 1-(5-methylpyridine-3-carbonyl)-4-[phenyl(pyridin-3-yl)methyl]piperazine], the IC50 in data set [1] (Table 2, read-out: Enzyme IC50) was 320 nM. The EC50 in data set [2] (setting [6]) turned out to be 475 nM; in data set [3] it was 1310 nM; in data set [5], 10 µg/mL (≈ 26.8 µM). Besides, the CC50 at 24 h in data set [4] was > 39800 nM.
In the case of `Cc1cncc(C(=O)N2CCN(C(c3ccccc3)c3cccc(F)c3)CC2)c1` (centres unmarked) [MKP-1225, 1-[(3-fluorophenyl)(phenyl)methyl]-4-(5-methylpyridine-3-carbonyl)piperazine], the IC50 in data set [1] (Table 2, read-out: Enzyme IC50) is 38 nM. In addition, the results for the EC50 in data set [2] (setting [6]), in data set [3] and in data set [5] were 210 nM, 481 nM and 2.5 µg/mL (≈ 6.42 µM), respectively. Further, the 50% cytotoxic concentration (CC50) at 24 h in data set [4] is > 39800 nM.
Regarding `Cc1cncc(C(=O)N2CCN(C(c3cccc(F)c3)c3cccc(F)c3)CC2)c1` [MKP-1268, 1-[bis(3-fluorophenyl)methyl]-4-(5-methylpyridine-3-carbonyl)piperazine], in data set [1] (Table 2, read-out: Enzyme IC50), the IC50 worked out at 36 nM. Moreover, the EC50 in data set [2] (setting [6]) stood at 111 nM; in data set [3] it was 143 nM; in data set [5], 2.5 µg/mL (≈ 6.14 µM). In data set [4], the 50% cytotoxic concentration (CC50) at 24 h was > 39800 nM.
In the same order, the values of `Cc1cncc(C(=O)N2CCN(C(c3ccccc3)c3cccc(Cl)c3)CC2)c1` (centres unmarked) [MKP-1272, 1-[(3-chlorophenyl)(phenyl)methyl]-4-(5-methylpyridine-3-carbonyl)piperazine] are 365 nM, 246 nM, 117 nM, 10 µg/mL (≈ 24.6 µM) and 33600 nM.
Regarding `O=C(c1cncc(Br)c1)N1CCC(=C(c2ccccc2)c2ccccc2)CC1` [NZ-771, 3-bromo-5-[4-(diphenylmethylidene)piperidine-1-carbonyl]pyridine], the IC50 in data set [1] (Table 2, read-out: Enzyme IC50) came to 250 nM. In addition, the EC50 is 940 nM in data set [2] (setting [6]), > 9610 nM in data set [3] and 20 µg/mL (≈ 46.2 µM) in data set [5]. In addition, in data set [4], the half-maximal cytotoxic concentration (CC50) at 24 h was > 39800 nM.
In the same order, the values of `O=C(c1cncc(Br)c1)N1CCN(C2c3ccccc3C=Cc3ccccc32)CC1` [NZ-773, (5-bromo-3-pyridyl)-[4-(2-tricyclo[9.4.0.03,8]pentadeca-1(11),3(8),4,6,9,12,14-heptaenyl)piperazin-1-yl]methanone] are 100 nM, 700 nM, > 9610 nM, 20 µg/mL (≈ 43.4 µM) and > 39800 nM.
In the same order, the values of `O=C(c1cncc(Br)c1)N1CCN(C2c3ccccc3CSc3ccccc32)CC1` (centres unmarked) [NZ-774, (5-bromo-3-pyridyl)-[4-(6,11-dihydrobenzo[c][1]benzothiepin-11-yl)piperazin-1-yl]methanone] are 130 nM, 630 nM, > 9610 nM, 5 µg/mL (≈ 10.4 µM) and > 39800 nM.
For `O=C(c1cncc(Br)c1)N1CCN(C2c3ccccc3COc3ccccc32)CC1` (centres unmarked) [NZ-776, (5-bromo-3-pyridyl)-[4-(6,11-dihydrobenzo[c][1]benzoxepin-11-yl)piperazin-1-yl]methanone], in that order: 140 nM, 480 nM, > 9610 nM, 2.5 µg/mL (≈ 5.38 µM) and > 39800 nM.
With `Cc1cncc(C(=O)N2CCC(C(O)(c3ccccc3)c3ccccc3)CC2)c1` [NZ-782, [1-(5-methylpyridine-3-carbonyl)piperidin-4-yl]diphenylmethanol], in data set [1] (Table 2, read-out: Enzyme IC50), the IC50 was 230 nM. Moreover, the EC50 is 570 nM in data set [2] (setting [6]), > 9610 nM in data set [3] and 5 µg/mL (≈ 12.9 µM) in data set [5]. Besides, the CC50 at 24 h in data set [4] was > 39800 nM.
For `Cc1cncc(C(=O)N2CCC(=C(c3ccccc3)c3ccccc3)CC2)c1` [NZ-783, 3-[4-(diphenylmethylidene)piperidine-1-carbonyl]-5-methylpyridine], in that order: 85 nM, 570 nM, > 9610 nM, 10 µg/mL (≈ 27.1 µM) and 25600 nM.
In the case of `Cc1cncc(C(=O)N2CCC(C(c3ccccc3)c3ccccc3)CC2)c1` [NZ-786, 3-[4-(diphenylmethyl)piperidine-1-carbonyl]-5-methylpyridine], the IC50 in data set [1] (Table 2, read-out: Enzyme IC50) worked out at 170 nM. For the same molecule, the EC50 is 570 nM in data set [2] (setting [6]), > 9610 nM in data set [3] and 10 µg/mL (≈ 27 µM) in data set [5]. Besides, the midpoint of cytotoxicity in data set [4], the CC50 at 24 h, lay at 28500 nM.
For `Cc1cncc(C(=O)N2CCC(=C3c4ccccc4C=Cc4ccccc43)CC2)c1` [NZ-793, (5-methyl-3-pyridyl)-[4-(2-tricyclo[9.4.0.03,8]pentadeca-1(11),3(8),4,6,9,12,14-heptaenylidene)-1-piperidyl]methanone], in that order: 120 nM, 527 nM, 520 nM, 5 µg/mL (≈ 12.7 µM) and 33100 nM.
Regarding `Cc1cncc(C(=O)N2CCC(=C3c4ccccc4CSc4ccccc43)CC2)c1` [NZ-794, [4-(6H-benzo[c][1]benzothiepin-11-ylidene)-1-piperidyl]-(5-methyl-3-pyridyl)methanone], the IC50 in data set [1] (Table 2, read-out: Enzyme IC50) was found to be 60 nM. The EC50 stood at 155 nM in data set [2] (setting [6]), 345 nM in data set [3] and 2.5 µg/mL (≈ 6.06 µM) in data set [5]. This molecule displayed a CC50 at 24 h in data set [4] of 39200 nM.
Take `O=C(c1cncc(Br)c1)N1CCN(C2c3ccccc3CCc3ccccc32)CC1` [ZS-316, (5-bromo-3-pyridyl)-[4-(2-tricyclo[9.4.0.03,8]pentadeca-1(11),3(8),4,6,12,14-hexaenyl)piperazin-1-yl]methanone]: the IC50 in data set [1] (Table 2, read-out: Enzyme IC50) was 140 nM. The EC50 in data set [2] (setting [6]) was 700 nM; in data set [3] it was > 9610 nM; in data set [5], 2.5 µg/mL (≈ 5.41 µM). For the same molecule, in data set [4], the CC50 at 24 h is > 39800 nM.
For `Cc1cncc(C(=O)N2CCN(C3c4ccccc4CCc4ccccc43)CC2)c1` [ZS-329, (5-methyl-3-pyridyl)-[4-(2-tricyclo[9.4.0.03,8]pentadeca-1(11),3(8),4,6,12,14-hexaenyl)piperazin-1-yl]methanone], in that order: 89 nM, 330 nM, > 9610 nM, 5 µg/mL (≈ 12.6 µM) and 21300 nM.
`Cc1cncc(C(=O)N2CCC(=C3c4ccccc4CCc4ccccc43)CC2)c1` [ZS-336, (5-methyl-3-pyridyl)-[4-(2-tricyclo[9.4.0.03,8]pentadeca-1(11),3(8),4,6,12,14-hexaenylidene)-1-piperidyl]methanone]: the IC50 in data set [1] (Table 2, read-out: Enzyme IC50) was 54 nM. Moreover, the EC50 was 252 nM in data set [2] (setting [6]), 314 nM in data set [3] and 2.5 µg/mL (≈ 6.34 µM) in data set [5]. The CC50 at 24 h in data set [4] turned out to be 31500 nM.
As for `Nc1cncc(C(=O)N2CCN(C3c4ccccc4CCc4ccccc43)CC2)c1` [ZS-342, (5-amino-3-pyridyl)-[4-(2-tricyclo[9.4.0.03,8]pentadeca-1(11),3(8),4,6,12,14-hexaenyl)piperazin-1-yl]methanone], the IC50 in data set [1] (Table 2, read-out: Enzyme IC50) was found to be 150 nM. The EC50 in data set [2] (setting [6]) was found to be 406 nM; in data set [3], 1180 nM; in data set [5], 5 µg/mL (≈ 12.5 µM). Also, the CC50 at 24 h in data set [4] is > 39800 nM.
As for `Cc1cncc(C(=O)N2CCN(C3c4ccccc4NC(=O)c4ccccc43)CC2)c1` (centres unmarked) [ZS-355, 11-[4-(5-methylpyridine-3-carbonyl)piperazin-1-yl]-5,11-dihydrobenzo[c][1]benzazepin-6-one], the IC50 in data set [1] (Table 2, read-out: Enzyme IC50) is 53 nM. In addition, the results for the EC50 in data set [2] (setting [6]), in data set [3] and in data set [5] were 223 nM, 377 nM and 20 µg/mL (≈ 48.5 µM), respectively. Also, the CC50 at 24 h in data set [4] is > 39800 nM.
As to `CC(=O)Nc1cncc(C(=O)N2CCN(C3c4ccccc4CCc4ccccc43)CC2)c1` [ZS-361, N-[5-[4-(2-tricyclo[9.4.0.03,8]pentadeca-1(11),3(8),4,6,12,14-hexaenyl)piperazine-1-carbonyl]-3-pyridyl]acetamide], the IC50 in data set [1] (Table 2, read-out: Enzyme IC50) worked out at 44 nM. For the same molecule, the EC50 in data set [2] (setting [6]) is 1180 nM; in data set [3], 4320 nM; in data set [5] it was 20 µg/mL (≈ 45.4 µM). Besides, in data set [4], the CC50 at 24 h was determined as 34200 nM.
